Measurements published in publication PMC5555576, “Selective small-chemical inhibitors of protein arginine methyltransferase 5 with anti-lung cancer activity” (PLoS ONE, 2017).
Where “and” joins values, the source holds several entries; their conditions need not be identical. Equal entries are not always repeated. Where two headings read alike, the source gives them in different places.

What was measured:
A549 cells [1] = assay: Cellular permeability and stability by HPLC of cell extracts; assay type: in vitro ADME; details: for decrease of concentration inside the cells: 20 μM for 2 h, within 10 h after removal; for concentration inside cells compared with the medium: 2 h; for cell permeability: 2 hr in medium with compound
Description: Waters 2695 HPLC System and a C18 column (Symmetry, 3.6 x 75 mm) were used. The column was equilibrated with 10% acetonitrile and eluated with a linear gradient from 10% acetonitrile to 100% acetonitrile in 60 min. Compounds were dissolved in 10% acetonitrile and the purchased compounds (ChemBridge) were used as the standards.
We then determined whether the identified compounds are cell-permeable. Lung cancer A549 cells were cultured in medium containing various concentrations of the respective compound for 2 hr. Cells were harvested and washed with PBS. The compounds were extracted with ethyl acetate from cells and analyzed by HPLC with a C18 column using the purchased compound as the standard. Compounds C2, C5, C9 and C11 are cell-permeable (Fig 6A), which is consistent with their tPSAs <140 angstroms square (Table 1). […] We even noticed that the compound C5 crystalized inside the cells.
A, The cellular permeability of identified compounds. Lung cancer A549 cells were cultured in the presence of various concentrations of compounds for 2h and the compound concentrations in the cell were determined by HPLC chromatography with a C18 column. B, The cellular stability of identified compounds. Lung cancer A549 cells were cultured in the presence of compounds (20 μM) for 2 h and then the medium was removed. Cells were washed with the medium and cultured for additional 5 or 10 h after the compounds were removed. The compound concentrations in the cell were determined by HPLC chromatography with a C18 column. […] A549 cells were grown in the presence of DMSO or compound C5, C9 or C11 (20 μM). Histones were purified and analyzed by SDS-PAGE stained with Commassie blue (lanes 1–4, bottom) or by Western blot with anti-symmetric dimethyl arginine antibody (SYM10) (lanes 1–4, top). B-Raf was immunoprecipitated with anti-B-Raf antibody from whole cell lysates and submitted for Western blot analysis with anti-B-Raf (lanes 5 and 6, bottom) or anti-symmetric dimethyl arginine (lanes 5 and 6, top) antibody.

PRMT5 = target: T1, PRMT5 (Homo sapiens, UniProt O14744); assay: Radioactive methyltransferase assay, PRMT5; assay type: biochemical
T1 construct: His6; made in house; host or cells: E. coli BL21(ED3) [sic]
Description: Methylation reactions were performed as previously described with a few modifications. Reaction mixtures (40 μl) containing 1.2 μg of PRMT5, 98 ng of PRMT1 or 98 ng of PRMT3; 2 μg of SmD3 or histones; 1 μCi of S-[methyl-^3H]adenosylmethionine (H^3-AdoMet; PerkinElmer); and 5 μM AdoMet were incubated in 50 mM Tris-HCl (pH 7.5)–1 mM EGTA–1 mM EDTA at 30°C for 2 h. Reaction mixtures (20 μl) were boiled in 5 μl of 5x SDS sample buffer and separated on a 15% polyacrylamide gel. Gels were fixed for 30 min in 40% methanol–10% acetic acid, incubated in 20 ml of Amplify (Amersham Life Science) for 10 min, dried and exposed to X-ray film at -80°C. IC50 was calculated by linear regression analysis of percent inhibition. The other half (20 μl) of each reaction mixture was spread onto DE81 chromatography paper discs (Whatman). The paper discs were washed 4 times with 50 mM NaHCO3 and dried. The amounts of methylated products were quantified by liquid scintillation.
In vitro methylation reactions were performed with recombinant PRMT5 (1.2 μg), PRMT1 ([…]) or PRMT3 (89 ng); [H^3]-AdoMet; and different substrates in the presence of identified compounds. […] The recombinant SmD3 (2 μg) was used as the substrate in the absence (lane 2) or presence of 1, 10 or 100 μM compounds as indicated. Reaction mixtures were separated on an SDS–15% polyacrylamide gel and the gel was dried under vacuum and exposed to film. […] Recombinant histones H4 or H2A (1 μg) were used as substrates of PRMT5 in the methylation assay in the absence or presence of 100 μM compounds as indicated. Reaction mixtures were spread onto DE81 chromatography paper discs. After a wash, the amounts of methylated products on discs were quantified by liquid scintillation. […] PRMT1 was incubated with purified histones (1 μg) or recombinant E2F1 (1 μg) as substrates in the absence (lane 2) or presence of 100 μM compounds as indicated. Reaction mixtures were separated on an SDS–15% polyacrylamide gel and the gel was dried and exposed to film.

A549 cells [2] = assay: BrdU incorporation assay; assay type: cell-based; details: 20 μM, 2 days
Description: A549 cells were infected with the lentivirus expressing NT or PRMT5 shRNA. A549 cells were grown in the presence of DMSO or compound C5, C9 or C11 (20 μM) for 2 days. A, Bromodeoxyuridine (BrdU) (BD Biosciences) incorporation assay. Cells were plated on a Chamber slide (BD falcon) and cultured in the presence of 10 μM BrdU for 4 h. The BrdU-positive cells (brown) were detected by immunostaining with the monoclonal anti-BrdU antibody (BD Biosciences) and observed under a microscope. B, Percentage of BrdU-positive cells in control, PRMT5-silencing or compound treated cells. The results represent the means of three independent experiments ± the standard deviation. ***, P<0.001. (TIF) Click here for additional data file.

PC14 cells = assay: Cell growth by cell counting, PC14; assay type: cell-based; details: 2 days post treatment
Description: Lung cancer A549 (ATCC) and PC14 (ATCC) cells were cultured in minimum essential medium (Cellgro) with 10% (v/v) fetal bovine serum (FBS) (HyClone), 2% vitamins, 1% L-glutamine, 1% non-essential amino acids and 1% sodium pyruvate. For the treatment with identified compounds, cells (2, 000 cells/well) were seeded in 24-well plates in the medium containing 2% FBS. The fresh medium containing identified compounds was added 24 hours later. Cells were cultured for various times in a CO2 incubator and the cell numbers were counted. Each experiment was performed in triplicate.
A, Lung cancer A549 cells were cultured in the presence of various concentrations (μM) of identified compounds and growth inhibition was determined by cell counting at various time points. B, Lung cancer PC14 cells were cultured in the presence of DMSO or various concentrations of identified compounds and growth inhibition was determined by cell counting 2 days post the compound treatment. C, The serum concentrations of compound C9 after oral administration. Mice were sacrificed and blood samples were collected immediately before (0 h) and at 2, 4, 6 and 8h after compound administration.

[3] = methylation of SmD3 by PRMT5, Table 1 prints no unit, μM, read-out: IC50

T1 sequence (O14744 whole entry): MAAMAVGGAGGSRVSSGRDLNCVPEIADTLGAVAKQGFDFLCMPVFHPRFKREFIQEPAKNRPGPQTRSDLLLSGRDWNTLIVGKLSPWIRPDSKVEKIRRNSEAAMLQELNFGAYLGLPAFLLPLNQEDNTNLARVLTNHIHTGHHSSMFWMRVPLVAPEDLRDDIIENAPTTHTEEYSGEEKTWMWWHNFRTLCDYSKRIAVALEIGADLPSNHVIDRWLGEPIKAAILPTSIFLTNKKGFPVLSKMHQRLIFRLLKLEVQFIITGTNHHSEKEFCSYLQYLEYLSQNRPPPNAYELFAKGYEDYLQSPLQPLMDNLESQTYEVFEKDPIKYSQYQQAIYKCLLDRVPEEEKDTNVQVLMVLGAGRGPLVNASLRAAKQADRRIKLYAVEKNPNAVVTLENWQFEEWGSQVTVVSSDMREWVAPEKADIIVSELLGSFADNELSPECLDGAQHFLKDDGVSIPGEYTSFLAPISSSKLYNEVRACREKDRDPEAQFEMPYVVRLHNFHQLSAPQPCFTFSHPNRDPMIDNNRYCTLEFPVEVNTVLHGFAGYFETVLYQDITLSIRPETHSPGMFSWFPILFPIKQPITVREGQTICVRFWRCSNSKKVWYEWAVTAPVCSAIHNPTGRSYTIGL

Row | SMILES | decrease of concentration inside the cells (A549 cells [1]) | concentration inside cells compared with the medium (A549 cells [1]) | cell permeability (A549 cells [1]) | IC50 (PRMT5; [3]) | IC50 (PRMT5; wild type PRMT5, SmD3 substrate, Fig 4D, read-out: IC50 (μM) PRMT5) | cellular proliferation (BrdU) (A549 cells [2]) | PC14 cell growth inhibition (PC14 cells) | inhibition of PRMT5 activity compared to C9 (PRMT5; SmD3 substrate, 1, 10 or 100 μM) | accumulation inside cells (A549 cells [1])
1 | CCn1c(=O)[nH]c2cc(C(=O)Nc3ccc(OC)cc3)ccc2c1=O [Compound C5] | about 2 folds | higher than those in the medium | cell-permeable | 0.75 µM | 0.8 µM | inhibited proliferation of lung cancer cells | inhibited PC14 cell growth |  | 
2 | Nc1cccc(Nc2ncnc3c2cnn3Cc2ccccc2)c1 [Compound C9a] |  |  |  | 0.7 µM |  |  |  | higher efficacy | 
3 | COc1ccc(Nc2ncnc3c2cnn3Cc2ccc(C)cc2)cc1 [Compound C9] | about 2 folds | higher than those in the medium | cell-permeable | ~6 µM and 6 µM |  | inhibited proliferation of lung cancer cells | inhibited PC14 cell growth |  | 5 fold
4 | Cn1cc(C(c2ccc(O)c(O)c2O)c2cn(C)c3ccccc23)c2ccccc21 [Compound C11] | about 2 folds | higher than those in the medium | cell-permeable | 0.3 µM |  | inhibited proliferation of lung cancer cells | inhibited PC14 cell growth |  | 
